According to patent US9169252B2 (BRISTOL-MYERS SQUIBB COMPANY, priority 2014, dated 2015):
Like-named read-outs stand apart in the source and are kept apart here.

Experiments:
[1] = test system: TLR2 induced IL-6 in peripheral blood mononuclear cells (PBMCs); assay: PBMC TLR2 Induced IL-6 Assay; type: cell-based, human; settings: IL-6 by ELISA; for EC50: read-out: Cell EC50; for IC50: read-out: Cell IC50
In short: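 Lipoteichoic acid at 10 µg/ml served as TLR2 stimulus for 5 hours, following a 30-minute compound pretreatment at 37° C. Cells were Ficoll-isolated human PBMCs, 250000 cells/well, cultured in RPMI plus 10% heat-inactivated FCS.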

[2] = target: IRAK4 (Homo sapiens (Human), UniProt Q9NWZ3); assay: IRAK4 Inhibition Assay; type: biochemical
In short: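 Mobility-shift readout: fluorescent substrate and phosphoproduct resolved electrophoretically on Caliper LabChip 3000 after EDTA quench (35 mM). Enzyme reaction of IRAK4, substrates and test compound ran 60 min at room temperature.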

[3] = Homo sapiens, PBMC, PBMC TLR2 Induced IL-6 Assay, lipoteichoic acid stimulation
[4] = IRAK4 Inhibition Assay, ATP 500 μM, read-out: IRAK4 IC50
[5] = Homo sapiens, PBMC, human PBMCs, lipoteichoic acid stimulated
[6] = ATP 500 μM, IRAK4 0.6 nM, read-out: IRAK4 IC50

IRAK4, sequence (Q9NWZ3 whole entry, species assumed): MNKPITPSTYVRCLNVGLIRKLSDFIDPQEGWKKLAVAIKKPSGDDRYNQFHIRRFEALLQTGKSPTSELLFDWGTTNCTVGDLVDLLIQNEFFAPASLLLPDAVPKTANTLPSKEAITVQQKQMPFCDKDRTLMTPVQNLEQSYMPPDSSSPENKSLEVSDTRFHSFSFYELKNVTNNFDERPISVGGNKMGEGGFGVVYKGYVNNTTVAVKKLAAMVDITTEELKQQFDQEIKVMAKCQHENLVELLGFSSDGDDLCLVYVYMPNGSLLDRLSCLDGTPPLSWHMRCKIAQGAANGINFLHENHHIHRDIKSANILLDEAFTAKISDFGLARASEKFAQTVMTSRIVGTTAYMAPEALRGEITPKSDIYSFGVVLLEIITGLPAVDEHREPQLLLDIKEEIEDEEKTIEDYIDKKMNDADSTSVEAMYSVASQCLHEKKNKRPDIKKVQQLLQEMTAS

| IC50 [2, 4] [nM] | IC50 [2, 6] [nM] | Compound | EC50 [1, 3] [nM] | IC50 [1, 5] [nM] | other results |
| --- | --- | --- | --- | --- | --- |
| 3.7 |  | CC(C)(O)[C@H](F)CNC(=O)c1cnc(-n2ccc3cc(C#N)cnc32)cc1NCC1COC1 [Example 29, (R)-6-(5-cyano-1H-pyrrolo[2,3-b]pyridin-1-yl)-N-(2-fluoro-3-hydroxy-3-methylbutyl)-4-((oxetan-3-ylmethyl)amino) nicotinamide] | 141 |  |  |
|  |  | CC(C)(O)[C@H](F)CNC(=O)c1cnc(-n2ccc3cc(C#N)cnc32)cc1NC1CCCC(F)(F)C1O (single isomer, unassigned) [Example 112] | 159 |  | IC50 ([2]; IRAK4 IC50): 4.4 nM |
| 7.1 |  | CCNc1cc(-n2ccc3cc(Cl)cnc32)ncc1C(=O)NC[C@@H](F)C(C)(C)O [Example 33, (R)-6-(5-chloro-1H-pyrrolo[2,3-b]pyridin-1-yl)-4-(ethylamino)-N-(2-fluoro-3-hydroxy-3-methylbutyl)nicotinamide] | 661 |  | IC50 [1, 3]: 403 nM |
|  | 1.9 | CC(C)(O)[C@H](F)CNC(=O)c1cnc(-n2ccc3cc(C#N)cnc32)cc1N[C@@H]1CCOC1 [Example 440] |  |  | EC50 [1, 5]: 72 nM |
| 7.3 |  | CC(C)Nc1cc(-n2ncc3cc(C#N)cnc32)ncc1C(=O)Nc1ccc(N2CCN(C)CC2)cn1 [Example 241] | 292 |  |  |
|  | 1.4 | C[C@H](F)CNc1cc(-n2ccc3cc(C#N)cnc32)ncc1C(=O)NC[C@@H](F)C(C)(C)O [Example 507] |  | 374 |  |
|  | 2 | CC(C)(O)[C@H](F)CNC(=O)c1cnc(-n2ccc3cc(C#N)cnc32)cc1NC1CN(c2ncc(F)cn2)C1 [Example 472] |  | 123 | EC50 [1, 5]: 70 nM |
|  | 4.6 | CC(C)(O)[C@H]1CC[C@H](NC(=O)c2cnc(-n3ccc4cc(F)cnc43)cc2NC2CC2)CC1 [Example 428] |  |  | EC50 [1, 5]: 361 nM |
| 4.3 |  | CC(C)n1cc(Nc2cc(-n3cnc4cc(Cl)cnc43)ncc2C(=O)NC[C@@H](F)C(C)(C)O)cn1 [Example 362] |  |  | IC50 [1, 3]: 486 nM |
| 8.1 |  | CC(C)NC(=O)[C@H](F)CNC(=O)c1cnc(-n2ncc3cc(C#N)cnc32)cc1NC(C)C [Example 197] | 297 |  |  |
|  | 3 | CC(C)(O)[C@H](F)CNC(=O)c1cnc(-n2ncc3cc(C#N)cnc32)cc1NC1CCN(c2ncc(F)cn2)CC1 [Example 540] |  | 158 |  |
| 2.8 |  | CC(C)Nc1cc(-n2ccc3cc(C#N)cnc32)ncc1C(=O)NCC(=O)NC1CCS(=O)(=O)C1 (stereo not shown) [Example 70, 6-(5-cyano-1H-pyrrolo[2,3-b]pyridin-1-yl)-N-(2-((1,1-dioxidotetrahydrothiophen-3-yl)amino)-2-oxoethyl)-4-(isopropylamino)nicotinamide] | 210 |  |  |
|  | 13.4 | CO[C@H]1CC[C@H](NC(=O)c2cnc(-n3ncc4cc(C#N)cnc43)cc2NC2COC2)CC1 [Example 552] |  | 213 |  |
|  | 13.5 | CC(C)Nc1cc(-n2ccc3cc(CNC(=O)C4CC4)cnc32)ncc1C(=O)NC[C@@H](F)C(C)(C)O [Example 505] |  | 559 |  |
| 1.7 |  | CC(C)Nc1cc(-n2ccc3cnc(NCCO)nc32)ncc1C(=O)NC[C@@H](F)C(C)(C)O [Example 188, (R)—N-(2-fluoro-3-hydroxy-3-methylbutyl)-6-(2-((2-hydroxyethyl)amino)-7H-pyrrolo[2,3-d]pyrimidin-7-yl)-4-(isopropylamino)nicotinamide] | 57 |  |  |
| 4.7 |  | CC[C@H](C)Nc1cc(-n2ncc3cc(C#N)cnc32)ncc1C(=O)NC[C@@H](F)C(C)(C)O [Example 289] |  |  | IC50 [1, 3]: 275 nM |
| 8.1 |  | CC(C)Nc1cc(-n2ncc3cc(C#N)cnc32)ncc1C(=O)NCCN1CCS(=O)(=O)CC1 [Example 211] | 87 |  |  |

| IC50 [2, 4] [nM] | IC50 [2, 6] [nM] | Compound | EC50 [1, 3] [nM] | IC50 [1, 5] [nM] | other results |
| --- | --- | --- | --- | --- | --- |
| 1.7 |  | CS(=O)(=O)[C@H]1CC[C@H](NC(=O)c2cnc(-n3ccc4cc(C#N)cnc43)cc2NC2CC2)CC1 [Example 104, 6-(5-Cyano-1H-pyrrolo[2,3-b]pyridin-1-yl)-4-(cyclopropylamino)-N-((trans)-4-(methylsulfonyl)cyclohexyl)nicotinamide] | 67 |  |  |
|  | 2.9 | CC(C)(O)[C@H](F)CNC(=O)c1cnc(-n2ccc3cc(C#N)cnc32)cc1N[C@@H]1CCN(C(=O)CC#N)C1 [Example 477] |  | 1300 | EC50 [1, 5]: 301 nM |
| 1.8 |  | CC(C)(O)[C@H](F)CNC(=O)c1cnc(-n2cnc3cc(C#N)cnc32)cc1Nc1cnn(CC(F)F)c1 [Example 375] |  |  | IC50 [1, 3]: 156 nM |
|  | 3.3 | CC(C)(O)[C@H]1CC[C@H](Nc2cc(-n3ncc4cc(Cl)cnc43)ncc2C(=O)NC[C@@H](F)C(C)(C)O)C1 [Example 628] |  | 148 |  |
| 2.8 |  | CC[C@@H](C)Nc1cc(-n2ncc3cc(C#N)cnc32)ncc1C(=O)NC[C@@H](F)C(C)(C)O [Example 283] |  |  | IC50 [1, 3]: 135 nM |
|  | 2.1 | CC(C)(O)[C@H](F)CNC(=O)c1cnc(-n2ccc3cc(C#N)cnc32)cc1Nc1cccc(-c2ncc[nH]2)c1 [Example 431] |  |  | EC50 [1, 5]: 106 nM |
|  | 8 | CC(=O)N1CCC(Nc2cc(-n3ccc4cc(C#N)cnc43)ncc2C(=O)NC[C@@H](F)C(C)(C)O)CC1 [Example 470] |  |  | EC50 [1, 5]: 240 nM |
| 1.7 |  | CC(C)Nc1cc(-n2ccc3cc(C#N)cnc32)ncc1C(=O)NCCC(C)(C)O [Example 11, 6-(5-cyano-1H-pyrrolo[2,3-b]pyridin-1-yl)-N-(3-hydroxy-3-methylbutyl)-4-(isopropylamino)nicotinamide] | 50 |  |  |
| 7.1 |  | CC(=O)N[C@H]1CC[C@H](NC(=O)c2cnc(-n3ccc4cc(C#N)cnc43)cc2NC2CCOCC2)CC1 [Example 88, N-((trans)-4-acetamidocyclohexyl)-6-(5-cyano-1H-pyrrolo[2,3-b]pyridin-1-yl)-4-((tetrahydro-2H-pyran-4-yl)amino)nicotinamide] | 345 |  |  |
|  | 14.2 | CC(C)(CNc1cc(-n2ncc3cc(C#N)cnc32)ncc1C(=O)NC[C@@H](F)C(C)(C)O)OC(F)F [Example 601] |  | 490 |  |
| 3.5 |  | CCNC(=O)c1cnc(-n2ncc3cc(C#N)cnc32)cc1Nc1cnn(CC(F)F)c1 [Example 393] |  |  | IC50 [1, 3]: 250 nM |
| 18.6 |  | CC(C)Nc1cc(-n2ncc3cc(C#N)cnc32)ncc1C(=O)NC1CCN(C(=O)C(C)C)CC1 [Example 273] |  |  | IC50 [1, 3]: 94 nM |
| 1.5 |  | CC(C)(O)[C@H](F)CNC(=O)c1cnc(-n2ccc3cc(C#N)cnc32)cc1Nc1cccc(CO)c1 [Example 71, (R)-6-(5-cyano-1H-pyrrolo[2,3-b]pyridin-1-yl)-N-(2-fluoro-3-hydroxy-3-methylbutyl)-4-((3-(hydroxymethyl)phenyl)amino)nicotinamide] | 28 |  |  |
|  | 5.5 | CC(C)(O)[C@H](F)CNC(=O)c1cnc(-n2ncc3cc(C#N)cnc32)cc1N[C@@H]1CCN(c2ncc(F)cn2)C1 [Example 532, 6-(5-Cyano-1H-pyrazolo[3,4-b]pyridin-1-yl)-N—((R)-2-fluoro-3-hydroxy-3-methylbutyl)-4-(((R)-1-(5-fluoropyrimidin-2-yl)pyrrolidin-3-yl)amino)nicotinamide] |  |  | EC50 ([1]; human PBMCs, lipoteichoic acid stimulated): 127 nM |
|  | 13.9 | CC(C)(O)[C@H](F)CNC(=O)c1cnc(-n2ccc3cc(C#N)cnc32)cc1N[C@@H]1CCNC1 [Example 466] |  | 130 | EC50 [1, 5]: 792 nM |
|  | 3.2 | CCNc1cc(-n2ncc3cc(C#N)c(N)nc32)ncc1C(=O)NC[C@@H](F)C(C)(C)O [Example 577] |  | 175 |  |
